The values that follow come from article PMC13608006 (Journal of medicinal chemistry, 2018).

Test [1] has as its system EV-A71. Nature of the test: antiviral CPE assay, anti-EV-A71 in LLC cells. It counts as cell-based, enterovirus 71 (EV-A71). The note with it: SI50 = CC50/EC50.
For test [2], the system named is CV-B3 (CVB3-H3). It counts as cell-based, coxsackievirus B3. Particulars: SI50 = CC50/EC50.

Turning to `CC(C)n1ncc2c(C(=O)Nc3ccncc3)cc(-c3cccs3)nc21` [JX042, 1-Isopropyl-N-(pyridin-4-yl)-6-(thiophen-2-yl)-1H-pyrazolo-[3,4-b]pyridine-4-carboxamide], the “SI50 (EV-A71 in LLC cells)” value in test [1] is “SI50: 15.8”. For the same molecule, in test [2], the “SI50 (CV-B3 in HeLa cells)” value is “SI50: 10.0”.
On to `CC(C)n1ncc2c(C(=O)Nc3ccc(F)cc3)cc(-c3ccco3)nc21` [JX026, N-(4-Fluorophenyl)-6-(furan-2-yl)-1-isopropyl-1H-pyrazolo-[3,4-b]pyridine-4-carboxamide], for which the “SI50 (EV-A71 in LLC cells)” value in test [1] is on record as “SI50: >76.9”. For the same molecule, the “SI50 (CV-B3 in HeLa cells)” value in test [2] is “SI50: >83.0”.
For the molecule `CC(C)n1ncc2c(C(=O)Nc3ccc(F)cc3)cc(-c3cccs3)nc21` [JX017, N-(4-Fluorophenyl)-1-isopropyl-6-(thiophen-2-yl)-1H-pyrazolo[3,4-b]pyridine-4-carboxamide], the “SI50 (EV-A71 in LLC cells)” value in test [1] was “SI50: >222.2”. In test [2], the “SI50 (CV-B3 in HeLa cells)” value is given as “SI50: >285.7”.
For the molecule `CC(C)n1ncc2c(C(=O)Nc3c(F)cc(F)cc3F)cc(-c3cccs3)nc21` [JX020, 1-Isopropyl-6-(thiophen-2-yl)-N-(2,4,6-trifluorophenyl)-1H-pyrazolo[3,4-b]pyridine-4-carboxamide], in test [1], the “SI50 (EV-A71 in LLC cells)” value is recorded as “SI50: >66.7”. For the same molecule, in test [2], the “SI50 (CV-B3 in HeLa cells)” value is reported as “SI50: >111.1”.
In the case of `CC(C)n1ccc2c(C(=O)Nc3cccnc3)cc(-c3cccs3)nc21` [JX062, 1-Isopropyl-N-(pyridin-3-yl)-6-(thiophen-2-yl)-1H-pyrrolo-[2,3-b]pyridine-4-carboxamide], the “SI50 (EV-A71 in LLC cells)” value in test [1] is recorded as “SI50: 31.3”. For the same molecule, in test [2], the “SI50 (CV-B3 in HeLa cells)” value was “SI50: 13.8”.
For `CC(C)n1ncc2c(C(=O)Nc3ccccn3)cc(-c3ccsc3)nc21` [JX057, 1-Isopropyl-N-(pyridin-2-yl)-6-(thiophen-3-yl)-1H-pyrazolo-[3,4-b]pyridine-4-carboxamide], the “SI50 (EV-A71 in LLC cells)” value in test [1] is “SI50: 31.3”. Moreover, the “SI50 (CV-B3 in HeLa cells)” value in test [2] is recorded as “SI50: 15.0”.
Turning to `CC(C)n1ncc2c(C(=O)Nc3ccccn3)cc(C3CC3)nc21` [JX071, 6-Cyclopropyl-1-isopropyl-N-(pyridin-2-yl)-1H-pyrazolo[3,4-b]pyridine-4-carboxamide], in test [1], the “SI50 (EV-A71 in LLC cells)” value is given as “SI50: 5.3”. Further, the “SI50 (CV-B3 in HeLa cells)” value in test [2] is given as “SI50: 5.3”.
Regarding `CC(C)n1ncc2c(C(=O)Nc3ccccc3F)cc(-c3ccccc3)nc21` [JX002, N-(2-Fluorophenyl)-1-isopropyl-6-phenyl-1H-pyrazolo[3,4-b]pyridine-4-carboxamide], the “SI50 (EV-A71 in LLC cells)” value in test [1] was “SI50: >35.1”. For the same molecule, the “SI50 (CV-B3 in HeLa cells)” value in test [2] is “SI50: 8.3”.
As for `CC(C)n1ncc2c(C(=O)Nc3ccc(F)cc3)cc(-c3ccsc3)nc21` [JX030, N-(4-Fluorophenyl)-1-isopropyl-6-(thiophen-3-yl)-1H-pyrazolo[3,4-b]pyridine-4-carboxamide], in test [1], the “SI50 (EV-A71 in LLC cells)” value is reported as “SI50: >142.9”. Besides, the “SI50 (CV-B3 in HeLa cells)” value in test [2] is given as “SI50: 19.2”.
Take `CC(C)n1ncc2c(C(=O)Nc3ccc(F)cc3)cc(C3CC3)nc21` [JX038, 6-Cyclopropyl-N-(4-fluorophenyl)-1-isopropyl-1H-pyrazolo-[3,4-b]pyridine-4-carboxamide]: the “SI50 (EV-A71 in LLC cells)” value in test [1] was “SI50: 3.9”. Besides, in test [2], the “SI50 (CV-B3 in HeLa cells)” value is given as “SI50: 3.0”.
For the molecule `CC(C)n1ncc2c(C(=O)Nc3cccc(S(=O)(=O)N(C)C)c3)cc(-c3cccs3)nc21` [JX052, N-(3-(N,N-Dimethylsulfamoyl)phenyl)-1-isopropyl-6-(thiophen-2-yl)-1H-pyrazolo[3,4-b]pyridine-4-carboxamide], the “SI50 (EV-A71 in LLC cells)” value in test [1] was “SI50: >250.0”. In addition, the “SI50 (CV-B3 in HeLa cells)” value in test [2] is given as “SI50: 12.0”.
For `CC(C)n1ncc2c(C(=O)Nc3ccc(F)cn3)cc(-c3cccs3)nc21` [JX075, N-(5-Fluoropyridin-2-yl)-1-isopropyl-6-(thiophen-2-yl)-1H-pyrazolo[3,4-b]pyridine-4-carboxamide], in test [1], the “SI50 (EV-A71 in LLC cells)” value is listed as “SI50: >166.7”. For the same molecule, in test [2], the “SI50 (CV-B3 in HeLa cells)” value is “SI50: 53.6”.
The like results for `CC(C)n1ccc2c(C(=O)Nc3ccccn3)cc(-c3cccs3)nc21` [JX072, 1-Isopropyl-N-(pyridin-2-yl)-6-(thiophen-2-yl)-1H-pyrrolo-[2,3-b]pyridine-4-carboxamide] were, in that order, “SI50: >166.7” and “SI50: 8.5”.
Take `CC(C)n1ncc2c(C(=O)Nc3ccc(S(C)(=O)=O)cc3)cc(-c3cccs3)nc21` [JX047, 1-Isopropyl-N-(4-(methylsulfonyl)phenyl)-6-(thiophen-2-yl)-1H-pyrazolo[3,4-b]pyridine-4-carboxamide]: the “SI50 (EV-A71 in LLC cells)” value in test [1] is recorded as “SI50: 100.0”. Moreover, the “SI50 (CV-B3 in HeLa cells)” value in test [2] is listed as “SI50: 200.0”.
The like results for `CC(C)n1ncc2c(C(=O)Nc3ccc(F)cc3F)cc(-c3cccs3)nc21` [JX008, N-(2,4-Difluorophenyl)-1-isopropyl-6-(thiophen-2-yl)-1H-pyrazolo[3,4-b]pyridine-4-carboxamide] were, in that order, “SI50: >125.0” and “SI50: >142.9”.
Consider `CC(C)n1ncc2c(C(=O)Nc3ccncn3)cc(-c3cccs3)nc21` [JX043, 1-Isopropyl-N-(pyrimidin-4-yl)-6-(thiophen-2-yl)-1H-pyrazolo[3,4-b]pyridine-4-carboxamide], for which the “SI50 (EV-A71 in LLC cells)” value in test [1] is given as “SI50: 100.0”. Besides, the “SI50 (CV-B3 in HeLa cells)” value in test [2] was “SI50: 33.3”.
`CNS(=O)(=O)c1cccc(NC(=O)c2cc(-c3cccs3)nc3c2cnn3C(C)C)c1` [JX053, 1-Isopropyl-N-(3-(N-methylsulfamoyl)phenyl)-6-(thiophen-2-yl)-1H-pyrazolo[3,4-b]pyridine-4-carboxamide]: the “SI50 (EV-A71 in LLC cells)” value in test [1] is recorded as “SI50: 35.7”. Besides, in test [2], the “SI50 (CV-B3 in HeLa cells)” value was “SI50: 24.0”.
For the molecule `CC(C)n1ncc2c(C(=O)Nc3cccnc3)cc(-c3ccsc3)nc21` [JX060, 1-Isopropyl-N-(pyridin-3-yl)-6-(thiophen-3-yl)-1H-pyrazolo-[3,4-b]pyridine-4-carboxamide], the “SI50 (EV-A71 in LLC cells)” value in test [1] is given as “SI50: 15.4”. The “SI50 (CV-B3 in HeLa cells)” value in test [2] is recorded as “SI50: 30.0”.
As for `CC(C)n1ncc2c(C(=O)Nc3ccccc3S(N)(=O)=O)cc(-c3cccs3)nc21` [JX033, 1-Isopropyl-N-(2-sulfamoylphenyl)-6-(thiophen-2-yl)-1H-pyrazolo[3,4-b]pyridine-4-carboxamide], the “SI50 (EV-A71 in LLC cells)” value in test [1] was “SI50: 10.0”. Further, the “SI50 (CV-B3 in HeLa cells)” value in test [2] is reported as “SI50: 3.8”.
With `CC(C)n1ncc2c(C(=O)Nc3ccccn3)cc(-c3ccccc3)nc21` [JX070, 1-Isopropyl-6-phenyl-N-(pyridin-2-yl)-1H-pyrazolo[3,4-b]-pyridine-4-carboxamide], the “SI50 (EV-A71 in LLC cells)” value in test [1] was “SI50: 17.9”. For the same molecule, the “SI50 (CV-B3 in HeLa cells)” value in test [2] is “SI50: 11.8”.
As to `CC(C)n1ncc2c(C(=O)Nc3ccncn3)cc(-c3ccsc3)nc21` [JX059, 1-Isopropyl-N-(pyrimidin-4-yl)-6-(thiophen-3-yl)-1H-pyrazolo[3,4-b]pyridine-4-carboxamide], the “SI50 (EV-A71 in LLC cells)” value in test [1] is “SI50: >250.0”. For the same molecule, the “SI50 (CV-B3 in HeLa cells)” value in test [2] is “SI50: >166.7”.
As to `CC(C)n1ncc2c(C(=O)Nc3cc(F)ccc3F)cc(-c3cccs3)nc21` [JX018, N-(2,5-Difluorophenyl)-1-isopropyl-6-(thiophen-2-yl)-1H-pyrazolo[3,4-b]pyridine-4-carboxamide], the “SI50 (EV-A71 in LLC cells)” value in test [1] is listed as “SI50: 28.6”. Moreover, in test [2], the “SI50 (CV-B3 in HeLa cells)” value was “SI50: >74.1”.
With `CC(C)n1ncc2c(C(=O)Nc3c(F)cccc3F)cc(-c3cccs3)nc21` [JX009, N-(2,6-Difluorophenyl)-1-isopropyl-6-(thiophen-2-yl)-1H-pyrazolo[3,4-b]pyridine-4-carboxamide], in test [1], the “SI50 (EV-A71 in LLC cells)” value was “SI50: >58.8”. Moreover, the “SI50 (CV-B3 in HeLa cells)” value in test [2] is “SI50: >62.5”.
As to `CC(C)n1ncc2c(C(=O)Nc3ccc(F)c(S(N)(=O)=O)c3)cc(-c3cccs3)nc21` [JX069, N-(4-Fluoro-3-sulfamoylphenyl)-1-isopropyl-6-(thiophen-2-yl)-1H-pyrazolo[3,4-b]pyridine-4-carboxamide], in test [1], the “SI50 (EV-A71 in LLC cells)” value was “SI50: 62.5”. In addition, the “SI50 (CV-B3 in HeLa cells)” value in test [2] is “SI50: >181.8”.
On to `CC(C)n1ncc2c(C(=O)Nc3ncccn3)cc(-c3ccsc3)nc21` [JX058, 1-Isopropyl-N-(pyrimidin-2-yl)-6-(thiophen-3-yl)-1H-pyrazolo[3,4-b]pyridine-4-carboxamide], for which the “SI50 (EV-A71 in LLC cells)” value in test [1] was “SI50: 41.7”. For the same molecule, the “SI50 (CV-B3 in HeLa cells)” value in test [2] is recorded as “SI50: 33.3”.
Regarding `CC(C)n1ncc2c(C(=O)Nc3cccc(F)c3)cc(-c3cccs3)nc21` [JX021, N-(3-Fluorophenyl)-1-isopropyl-6-(thiophen-2-yl)-1H-pyrazolo[3,4-b]pyridine-4-carboxamide], the “SI50 (EV-A71 in LLC cells)” value in test [1] is “SI50: >83.3”. Also, the “SI50 (CV-B3 in HeLa cells)” value in test [2] is recorded as “SI50: >250.0”.
For the molecule `CC(C)n1ncc2c(C(=O)Nc3ccccn3)cc(-c3cccs3)nc21` [JX040, 1-Isopropyl-N-(pyridin-2-yl)-6-(thiophen-2-yl)-1H-pyrazolo-[3,4-b]pyridine-4-carboxamide], the “SI50 (EV-A71 in LLC cells)” value in test [1] was “SI50: >400.0”. The “SI50 (CV-B3 in HeLa cells)” value in test [2] is given as “SI50: >250.0”.
As to `CC(C)n1ncc2c(C(=O)Nc3ncccn3)cc(-c3cccs3)nc21` [JX041, 1-Isopropyl-N-(pyrimidin-2-yl)-6-(thiophen-2-yl)-1H-pyrazolo[3,4-b]pyridine-4-carboxamide], the “SI50 (EV-A71 in LLC cells)” value in test [1] is given as “SI50: 150.0”. Besides, the “SI50 (CV-B3 in HeLa cells)” value in test [2] is given as “SI50: 62.5”.
`CC(C)n1ncc2c(C(=O)Nc3ccccc3F)cc(-c3cccnc3)nc21` [JX005, N-(2-Fluorophenyl)-1-isopropyl-6-(pyridin-3-yl)-1H-pyrazolo[3,4-b]pyridine-4-carboxamide]: the “SI50 (CV-B3 in HeLa cells)” value in test [2] is “SI50: 5.4”.
Take `CC(C)n1ncc2c(C(=O)Nc3cccc(F)c3F)cc(-c3cccs3)nc21` [JX019, N-(2,3-Difluorophenyl)-1-isopropyl-6-(thiophen-2-yl)-1H-pyrazolo[3,4-b]pyridine-4-carboxamide]: in test [1], the “SI50 (EV-A71 in LLC cells)” value was “SI50: 25.0”. In test [2], the “SI50 (CV-B3 in HeLa cells)” value is recorded as “SI50: >74.1”.
